Results: patent US20230357242A1, “COMPOUND AS AKT KINASE INHIBITOR” (CHIA TAI TIANQING PHARMACEUTICAL GROUP CO., LTD., priority 2020, published 2023)
Where two headings read alike, the source gives them in different places.

Key:
AKT1 (S473) = biological target: T1, AKT1 (S473) (Homo sapiens, UniProt P31749); assay: Inhibitory effect on phosphorylation of LNcap cells AKT1 (S473); type: cell-based; conditions: 1 h incubation
T1 construct: endogenous in cells; host or cells: LNcap cells
Method: LNcap cells AKT1 (S473) growing at log phase were taken, digested with 1 mL of pancreatin for 3 min, and added with 4 mL of complete medium to terminate digestion. The cells were added to a centrifuge tube. 20 μL of cells were taken and counted, the required number of cells (mL) was taken and centrifuged at 1200 rpm for 5 min, and a plating medium (2% FBS+phenol-free red 1640 base medium+1% sodium pyruvate+1% glutamine) was added to adjust the cell density to about 1×10E6 cells/mL. The cells were plated (96 wells) at the above cell density (100 μL/well), and cultured in a cell incubator at 37° C., 5% CO2 overnight; the next day, according to the plate distribution, the corresponding compound was sprayed using a nanoliter pipettor and incubated for 1 h at 37° C. in a cell incubator containing 5% CO2; the supernatant was discarded, and the plate was added with 40 μL of lysis buffer (1×) containing blocking buffer and incubated by shaking at room temperature for 30 min. After the mixture was mixed, 16 μL of lysate was transferred to another 384-well small-volume white plate. The plate was added with 4 μL of pre-mixed antibody (v/v) in assay buffer, covered, centrifuged to mix well, and incubated overnight at room temperature. The 665 nm/620 nm signal value was detected using a PE Envision multi-functional microplate reader, and IC50 was calculated by four-parameter fitting.

LNcap cells = assay: Inhibitory effect on proliferation of LNcap cells (CCK-8, 72 h); type: cell-based; conditions: Homo sapiens
Method: A dish of LNcap cells (human prostate cancer cells with PTEN deficiency) growing at log phase and in good conditions were taken and digested for 3 min by using 1 mL of pancreatin, then the mixture was added with 4 mL of complete culture medium to terminate digestion, and the cells were added to a centrifuge tube. 20 μL of cells were taken and counted, the required number of cells (mL) was pipetted and centrifuged at 1200 rpm for 5 min, the supernatant was discarded, and an appropriate amount of plating medium (RPMI medium+5% FBS+1% sodium pyruvate+1% glutamine) was added to adjust the cell density to 3×10^4 cells/mL. The cells were seeded on a 96-well plate at 100 μL/well using a multi-channel pipette and cultured in a cell incubator at 37° C., 5% CO2 and saturated humidity. After incubation overnight, compounds were loaded using a nanoliter pipettor, 2 duplicate wells were set for each concentration, and cells without compound were used as negative controls. After 72 h, CCK-8 was added at 10 μL/well for incubation for 4 h, then absorbance was measured at 450 nm with an Envision plate reader, and inhibition rate was calculated. Inhibition rate (%)=(mean value of negative control group−mean value of experimental group)/(mean value of negative control group−mean value of blank group)×100%. A dose-response curve was fitted by four-parameter analysis, with the logarithm of compound concentration as abscissa and inhibition rate as ordinate, so that IC50 was calculated.

[1] = LNcap cells, CCK-8, read-out: LNcap cells IC50
[2] = LNCaP, read-out: LNcap cells IC50

T1 sequence (P31749 whole entry): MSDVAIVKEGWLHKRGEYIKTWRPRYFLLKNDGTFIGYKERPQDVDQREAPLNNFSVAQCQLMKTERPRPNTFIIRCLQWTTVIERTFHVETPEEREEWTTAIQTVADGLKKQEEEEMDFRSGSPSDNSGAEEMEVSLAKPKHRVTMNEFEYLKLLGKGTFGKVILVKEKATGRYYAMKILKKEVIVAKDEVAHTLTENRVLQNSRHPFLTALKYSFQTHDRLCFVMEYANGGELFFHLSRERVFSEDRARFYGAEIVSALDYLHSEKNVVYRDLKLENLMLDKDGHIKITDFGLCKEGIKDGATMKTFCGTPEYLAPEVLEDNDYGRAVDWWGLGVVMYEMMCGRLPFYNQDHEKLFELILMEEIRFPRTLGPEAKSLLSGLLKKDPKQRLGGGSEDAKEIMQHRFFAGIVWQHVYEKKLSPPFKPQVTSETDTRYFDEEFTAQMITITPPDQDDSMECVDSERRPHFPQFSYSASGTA

Row | SMILES | IC50 (AKT1 (S473)) [nM] | IC50 (LNcap cells; [1]) [nM] | IC50 (LNcap cells; [2]) [nM]
1 | CC#CC(=O)N1CCCC1c1cccc(-c2ccc3nc(-c4cccnc4N)n(-c4ccc(C5(N)CCC5)cc4)c3n2)c1 (centres unmarked) [Compound 1] | 34 | 16 | 
2 | C=CC(=O)NCc1cccc(-c2ccc3nc(-c4cccnc4N)n(-c4ccc(C5(N)CCC5)cc4)c3n2)c1 [Compound 2] | 17 | 34 | 
3 | C=CC(=O)Nc1ccc(-c2ccc3nc(-c4cccnc4N)n(-c4ccc(C5(N)CCC5)cc4)c3n2)cc1 [Compound 3] | 20 |  | 6.5
4 | Nc1ncccc1-c1nc2ccc(-c3cccc(N4CC5(CCOCC5)C4)c3)nc2n1-c1ccc(C2(N)CCC2)cc1 [Compound 6] | 54 |  | 15
5 | CC(=O)N1CC[C@@H](N(C)c2cccc(-c3ccc4nc(-c5cccnc5N)n(-c5ccc(C6(N)CCC6)cc5)c4n3)c2)C1 [Compound 7] |  |  | 48
6 | Nc1ncccc1-c1nc2ccc(-c3cccc(N4CCN5C(=O)CCC5C4)c3)nc2n1-c1ccc(C2(N)CCC2)cc1 (centres unmarked) [Compound 9] | 16 | 24 | 
7 | CC1CN(C2COC2)CCN1c1cccc(-c2ccc3nc(-c4cccnc4N)n(-c4ccc(C5(N)CCC5)cc4)c3n2)c1 (centres unmarked) [Compound 10] | 47 |  | 21
8 | Nc1ncccc1-c1nc2ccc(-c3cccc(N4CCN(C5COC5)CC4)c3)nc2n1-c1ccc(C2(N)CCC2)cc1 [Compound 11] | 19 | 12 | 
9 | Nc1ncccc1-c1nc2ccc(-c3cccc(N4CC5(COC5)C4)c3)nc2n1-c1ccc(C2(N)CCC2)cc1 [Compound 13] |  |  | 20
10 | CC(=O)N1CC2(C1)CN(c1cccc(-c3ccc4nc(-c5cccnc5N)n(-c5ccc(C6(N)CCC6)cc5)c4n3)c1)C2 [Compound 16] | 19 | 8.7 | 
11 | CS(=O)(=O)N1CC2(CN(c3cccc(-c4ccc5nc(-c6cccnc6N)n(-c6ccc(C7(N)CCC7)cc6)c5n4)c3)C2)C1 [Compound 17] | 17 | 12 | 
12 | Nc1ncccc1-c1nc2ccc(-c3cccc(N4CC5COCC5C4)c3)nc2n1-c1ccc(C2(N)CCC2)cc1 (centres unmarked) [Compound 18] |  |  | 18
13 | Nc1ncccc1-c1nc2ccc(-c3cccc(N4CCCS4(=O)=O)c3)nc2n1-c1ccc(C2(N)CCC2)cc1 [Compound 20] |  | 15 | 
14 | Nc1ncccc1-c1nc2ccc(-c3cccc(N4CCC(N5CCCC5=O)CC4)c3)nc2n1-c1ccc(C2(N)CCC2)cc1 [Compound 21] | 23 | 3 | 
15 | CC(=O)N(C)[C@@H]1CCN(c2cccc(-c3ccc4nc(-c5cccnc5N)n(-c5ccc(C6(N)CCC6)cc5)c4n3)c2)C1 [Compound 24] |  |  | 41
16 | CC(=O)N1CC2CN(c3cccc(-c4ccc5nc(-c6cccnc6N)n(-c6ccc(C7(N)CCC7)cc6)c5n4)c3)CC21 (centres unmarked) [Compound 26] |  | 14 | 
17 | CC(=O)N(C)C1CCCN(c2cccc(-c3ccc4nc(-c5cccnc5N)n(-c5ccc(C6(N)CCC6)cc5)c4n3)c2)C1 (centres unmarked) [Compound 27] |  | 20 | 
18 | CC(=O)N(C)CCN(C)c1cccc(-c2ccc3nc(-c4cccnc4N)n(-c4ccc(C5(N)CCC5)cc4)c3n2)c1 [Compound 29] |  | 46 | 
19 | CC(=O)N(C)[C@H]1CCN(c2cccc(-c3ccc4nc(-c5cccnc5N)n(-c5ccc(C6(N)CCC6)cc5)c4n3)c2)C1 [Compound 31] |  |  | 28

Row | SMILES | IC50 (AKT1 (S473)) [nM] | IC50 (LNcap cells; [1]) [nM] | IC50 (LNcap cells; [2]) [nM]
20 | CN(C1CCN(c2cccc(-c3ccc4nc(-c5cccnc5N)n(-c5ccc(C6(N)CCC6)cc5)c4n3)c2F)CC1)S(C)(=O)=O [Compound 32] | 11 | 4.3 | 
21 | CN1CC2(CC1=O)CN(c1cccc(-c3ccc4nc(-c5cccnc5N)n(-c5ccc(C6(N)CCC6)cc5)c4n3)c1)C2 [Compound 33] | 17 | 11 | 
22 | Nc1ncccc1-c1nc2ccc(-c3cccc(N4CCC(N5CCC(F)(F)C5=O)CC4)c3)nc2n1-c1ccc(C2(N)CCC2)cc1 [Compound 34] | 25 | 2.9 | 
23 | CC(=O)N1CCC2(CC1)CN(c1cccc(-c3ccc4nc(-c5cccnc5N)n(-c5ccc(C6(N)CCC6)cc5)c4n3)c1F)C2 [Compound 35] | 12 | 5 | 
24 | CC(=O)N1CC2(CCN(c3cccc(-c4ccc5nc(-c6cccnc6N)n(-c6ccc(C7(N)CCC7)cc6)c5n4)c3F)C2)C1 [Compound 36] |  | 14 | 
25 | CC(=O)N1CCC2(C1)CN(c1cccc(-c3ccc4nc(-c5cccnc5N)n(-c5ccc(C6(N)CCC6)cc5)c4n3)c1F)C2 [Compound 37] | 11 | 7.6 | 
26 | [2H]C1([2H])CC(N2CCCC2=O)CC([2H])([2H])N1c1cccc(-c2ccc3nc(-c4cccnc4N)n(-c4ccc(C5(N)CCC5)cc4)c3n2)c1F [Compound 38] | 13 | 11 | 
27 | CC1COC(=O)N1C1CCN(c2cccc(-c3ccc4nc(-c5cccnc5N)n(-c5ccc(C6(N)CCC6)cc5)c4n3)c2)CC1 (centres unmarked) [Compound 39] | 42 |  | 11
28 | CC(=O)N1C[C@@H]2CN(c3cccc(-c4ccc5nc(-c6cccnc6N)n(-c6ccc(C7(N)CCC7)cc6)c5n4)c3F)C[C@@H]2C1 [Compound 40] |  | 19 | 
29 | Nc1ncccc1-c1nc2ccc(-c3cccc(N4CCC(N5CCCCS5(=O)=O)CC4)c3F)nc2n1-c1ccc(C2(N)CCC2)cc1 [Compound 41] | 41 | 10 | 
30 | Nc1ncccc1-c1nc2ccc(-c3cccc(N4CCC(N5CCCS5(=O)=O)CC4)c3F)nc2n1-c1ccc(C2(N)CCC2)cc1 [Compound 42] |  | 21 | 
31 | CC(=O)N(C)[C@@H]1C[C@H]2CC[C@@H](C1)N2c1cccc(-c2ccc3nc(-c4cccnc4N)n(-c4ccc(C5(N)CCC5)cc4)c3n2)c1 [Compound 43] |  | 47 | 
32 | CC1CN(c2cccc(-c3ccc4nc(-c5cccnc5N)n(-c5ccc(C6(N)CCC6)cc5)c4n3)c2F)CCC1N1CCCC1=O (centres unmarked) [Compound 46] |  | 7.5 | 
33 | CC(=O)N1CC2CC(C1)N2c1cccc(-c2ccc3nc(-c4cccnc4N)n(-c4ccc(C5(N)CCC5)cc4)c3n2)c1F [Compound 47] |  | 81 | 
34 | CC1CC(N2CCCC2=O)CCN1c1cccc(-c2ccc3nc(-c4cccnc4N)n(-c4ccc(C5(N)CCC5)cc4)c3n2)c1 (centres unmarked) [Compound 48] |  | 6.9 | 
35 | CN1CC2(CC1=O)CN(c1cccc(-c3ccc4nc(-c5cccnc5N)n(-c5ccc(C6(N)CCC6)cc5)c4n3)c1F)C2 [Compound 49] |  | 4 | 
36 | [2H]C([2H])([2H])N(C(C)=O)C1CCN(c2cccc(-c3ccc4nc(-c5cccnc5N)n(-c5ccc(C6(N)CCC6)cc5)c4n3)c2)CC1 [Compound 54] |  |  | 2.2
37 | [2H]C([2H])([2H])N(C(C)=O)C1CCN(c2cccc(-c3ccc4nc(-c5cccnc5N)n(-c5ccc(C6(N)CCC6)cc5)c4n3)c2F)CC1 [Compound 55] | 7.1 | 2.1 | 
